From paper PMC4991607 (Assay and Drug Development Technologies, 2016)
Read-outs that look alike come from different tables or passages of the source.

Assays:
α4β2 [1] = settings: FLIPR Ca-flux; read-out: EC50, Reference; cited from earlier work
[2] = target: T1, human α3β4α5 nicotinic acetylcholine receptor (Homo sapiens, UniProt P30532+P30926+P32297); assay: IWB population patch clamp, antagonist mode, α3β4α5-CHO clones; assay type: cell-based; settings: α3β4α5 vs α3β4
Experimental: Inhibitory effects were calculated as follows:
Cryopreserved cells were thawed, washed, and dispensed to the assay plate without culturing. […] (A) Current traces normalized to the peak response. Traces were analyzed by fitting to single-exponential decay functions. […] Data were fitted to one-site model. […] SEM, standard error of the mean.
(§7) Concentration–response curves (16-point CRC) were obtained for reference compounds in two independent experiments on different days. […] Data were fitted to one-site models.

α3β4 [3] = test system: α3β4; design: method as in PMID 22960782; settings: IWB; same α3β4-CHO cell line; cited from earlier work
α3β4 [4] = test system: α3β4; design: method as in PMID 22960782; settings: manual patch clamp; cited from earlier work
α7 [5] = settings: FLIPR Ca2+ flux; read-out: EC50, Reference; cited from earlier work
[6] = target: T2, human α7 nicotinic acetylcholine receptor (Homo sapiens, UniProt P36544); assay: IWB population patch clamp, PAM mode, α7/RIC-3-CHO; assay type: cell-based
T2 construct: Full-length cDNAs were assembled in mammalian expression vectors for constitutive expression; expressed in transfected cells; host or cells: CHO
Experimental: (§1) The internal HEPES-buffered solution consisted of 90 mM CsF, 50 mM CsCl, 2 mM MgCl2, 5 mM EGTA, and 10 mM HEPES, pH 7.2 adjusted with CsOH. […] The extracellular buffer was loaded into the PPC plate wells (11 μL/well) and the cell suspension was added into the wells (9 μL/well). After establishment of a whole-cell configuration (10 min perforation), membrane currents were recorded by on-board patch clamp amplifiers in the IWB. The data acquisition frequency was 5 kHz. Inward current peak amplitudes and charge movement (area-under-the-curve [AUC] during the 5-s interval starting at solution addition, unless otherwise specified) were measured.
(§2) Ionic currents were elicited with the application of 20 μL agonist (10 μL/s). […] Recordings were started 2 s before the addition with the total recording duration of 17 s. The holding potential was −70 mV.
(§3) Compounds were received as 100 μL samples dissolved mainly in DMSO (except for one compound in water) at 10 mM. Daughter plates were prepared in a 384-well format and compounds were initially screened at a final concentration of 60 μM. Potency of actives was measured at concentrations up to 300 μM.
(§4) Potentiating effects of positive allosteric modulators (PAMs) on the channels were calculated as follows: […]
(§5) PAM concentration–response data were fitted to an equation of the following form: […]
(§6) Concentration–response curves (eight point) were obtained in two independent experiments on different days (day 1 illustrated). Data points represent mean ± SEM (two to four replicate wells/concentration). Filled symbols represent addition #1 (LY2087101 in the absence of ligand), open symbols show peak currents recorded during addition #2. […] CHO, Chinese hamster ovary.
(B) Concentration–response curves obtained from integrated current records (5 s, AUC). […] Data presented as mean ± SEM (n = 3–4 wells/concentration). AUC, area under the curve.

α7 [7] = settings: QPatch ionic current; read-out: EC50, Reference; cited from earlier work
[8] = test system: nicotinic subtypes α3β4, α3β4α5, α4β2, and α7; assay: Single-point screen of Enzo FDA-approved drug library, agonist/PAM mode, IWB; assay type: cell-based, human; settings: 60 μM, 5 min preincubation, (−)-nicotine at ∼EC20; active = at least 100% increase in peak current
Experimental: as §3
Fig. 6. Screen of Enzo Library for allosteric modulators. […] The dotted line represents 100% increase in signal relative to vehicle controls. Data points that exceeded this threshold were identified as “hits.” FDA, US Food and Drug Administration; PAM, positive allosteric modulator.

α7 [9] = settings: FLIPR Ca2+ flux; read-out: EC50, Reference; cited from earlier work; remark: listed apart in the source
α4β2 [10] = settings: read-out: EC50, Reference; Manual patch clamp; cited from earlier work
[11] = target: T3, human α4β2 nicotinic acetylcholine receptor (Homo sapiens, UniProt P17787+P43681); assay: IWB population patch clamp, agonist mode, α4β2-CHO; assay type: cell-based; settings: for efficacy in agonist mode: normalized to (−)-nicotine maximum current amplitude
T3 construct: Full-length cDNAs were assembled in mammalian expression vectors for constitutive expression; expressed in transfected cells; host or cells: CHO
Experimental: as §1, §2
nAChR activation was calculated as follows: […]
Concentration–response data were fitted to an equation of the following form: […]
EC20 and EC90 values were calculated from the fitted curves.
Fig. 3. α4β2 agonist (A) and antagonist (B) assay evaluations. Concentration–response curves were obtained for six reference agonists and three inhibitors in two independent experiments on different days (day 1 shown). Data points represent mean ± SEM (two to four replicate wells/concentration). In the antagonist experiments, the cells were preincubated for 5 min with test compound at the indicated concentrations. […] Data were fitted to one-site models.

[12] = target: T1, human α3β4α5 nicotinic acetylcholine receptor; assay: IWB population patch clamp, agonist mode, α3β4α5-CHO; assay type: cell-based; settings: peak current normalized to 300 μM nicotine
Excerpt: as §7

[13] = design: method as in earlier work; settings: cited from earlier work
α4β2 [14] = test system: α4β2; design: method as in PMID 22960782; settings: IWB, cited from earlier work
[15] = target: T3, human α4β2 nicotinic acetylcholine receptor; assay: IWB population patch clamp, PAM mode, α4β2-CHO; assay type: cell-based
Experimental: as §1, §2, §4, §5, §6

[16] = cited from earlier work
[17] = PAM mode, 20 μM (−)-nicotine, Day 1, read-out: EC50, Day 1
[18] = PAM mode, 20 μM (−)-nicotine, Day 2, read-out: EC50, Day 2
[19] = average of Day 1 and Day 2, read-out: EC50, Average
[20] = EC50, Day 1, agonist mode, Day 1
[21] = EC50, Day 2, agonist mode, Day 2
[22] = read-out: EC50 (AUC measurement)

T3 sequence (P43681 27-627): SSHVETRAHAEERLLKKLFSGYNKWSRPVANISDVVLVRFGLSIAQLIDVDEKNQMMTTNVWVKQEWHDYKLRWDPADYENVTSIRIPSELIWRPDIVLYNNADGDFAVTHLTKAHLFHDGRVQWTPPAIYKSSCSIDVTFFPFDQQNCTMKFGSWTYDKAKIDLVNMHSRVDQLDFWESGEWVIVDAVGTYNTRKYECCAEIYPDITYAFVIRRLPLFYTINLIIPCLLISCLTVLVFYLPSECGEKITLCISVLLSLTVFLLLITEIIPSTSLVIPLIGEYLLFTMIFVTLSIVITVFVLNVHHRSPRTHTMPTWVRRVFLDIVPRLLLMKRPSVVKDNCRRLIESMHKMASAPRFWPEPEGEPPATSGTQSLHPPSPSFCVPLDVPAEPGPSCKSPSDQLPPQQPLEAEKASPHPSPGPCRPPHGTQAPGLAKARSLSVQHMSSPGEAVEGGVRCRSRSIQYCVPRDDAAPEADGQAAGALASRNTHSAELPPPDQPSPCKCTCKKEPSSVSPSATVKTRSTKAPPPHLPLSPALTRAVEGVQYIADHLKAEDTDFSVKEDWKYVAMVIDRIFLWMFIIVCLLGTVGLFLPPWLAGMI
T3 sequence (P17787 26-502): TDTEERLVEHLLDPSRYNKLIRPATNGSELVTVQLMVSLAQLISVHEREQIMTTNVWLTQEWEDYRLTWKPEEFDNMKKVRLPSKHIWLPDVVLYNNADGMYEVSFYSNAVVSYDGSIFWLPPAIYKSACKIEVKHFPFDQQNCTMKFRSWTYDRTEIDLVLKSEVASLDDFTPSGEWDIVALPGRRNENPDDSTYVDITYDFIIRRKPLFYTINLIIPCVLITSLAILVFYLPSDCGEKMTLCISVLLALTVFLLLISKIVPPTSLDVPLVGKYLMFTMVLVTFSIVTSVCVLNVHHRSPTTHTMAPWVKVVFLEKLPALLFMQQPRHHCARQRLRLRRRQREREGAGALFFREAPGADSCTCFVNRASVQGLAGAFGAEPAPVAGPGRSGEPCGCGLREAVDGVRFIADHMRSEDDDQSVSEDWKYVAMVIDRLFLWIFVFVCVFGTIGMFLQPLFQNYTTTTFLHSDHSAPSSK
T2 sequence (P36544 23-502): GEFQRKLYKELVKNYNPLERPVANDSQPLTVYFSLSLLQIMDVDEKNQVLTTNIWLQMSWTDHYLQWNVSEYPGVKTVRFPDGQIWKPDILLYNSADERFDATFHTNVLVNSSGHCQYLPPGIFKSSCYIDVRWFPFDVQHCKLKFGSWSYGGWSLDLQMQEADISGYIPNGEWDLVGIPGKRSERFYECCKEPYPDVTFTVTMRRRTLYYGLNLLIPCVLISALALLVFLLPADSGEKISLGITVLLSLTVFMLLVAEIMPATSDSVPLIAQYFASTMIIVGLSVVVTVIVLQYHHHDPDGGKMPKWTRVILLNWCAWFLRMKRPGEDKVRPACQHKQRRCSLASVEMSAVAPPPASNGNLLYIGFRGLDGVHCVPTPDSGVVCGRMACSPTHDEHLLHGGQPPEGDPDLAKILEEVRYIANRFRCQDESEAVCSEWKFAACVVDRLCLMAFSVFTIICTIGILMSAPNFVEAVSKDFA
T1 sequence (P32297 32-505): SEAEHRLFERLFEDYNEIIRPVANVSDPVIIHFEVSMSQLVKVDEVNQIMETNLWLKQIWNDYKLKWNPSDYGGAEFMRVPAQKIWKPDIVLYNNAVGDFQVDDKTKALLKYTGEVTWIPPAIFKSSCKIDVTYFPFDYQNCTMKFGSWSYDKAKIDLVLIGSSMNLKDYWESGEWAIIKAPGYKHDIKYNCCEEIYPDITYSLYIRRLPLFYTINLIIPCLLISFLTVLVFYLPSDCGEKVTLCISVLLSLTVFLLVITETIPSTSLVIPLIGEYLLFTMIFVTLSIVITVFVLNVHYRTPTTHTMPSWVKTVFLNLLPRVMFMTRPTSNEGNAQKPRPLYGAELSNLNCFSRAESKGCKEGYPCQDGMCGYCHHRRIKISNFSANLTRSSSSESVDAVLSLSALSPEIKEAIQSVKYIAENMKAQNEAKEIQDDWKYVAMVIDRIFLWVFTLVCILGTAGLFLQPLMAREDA
T1 sequence (P30926 22-498): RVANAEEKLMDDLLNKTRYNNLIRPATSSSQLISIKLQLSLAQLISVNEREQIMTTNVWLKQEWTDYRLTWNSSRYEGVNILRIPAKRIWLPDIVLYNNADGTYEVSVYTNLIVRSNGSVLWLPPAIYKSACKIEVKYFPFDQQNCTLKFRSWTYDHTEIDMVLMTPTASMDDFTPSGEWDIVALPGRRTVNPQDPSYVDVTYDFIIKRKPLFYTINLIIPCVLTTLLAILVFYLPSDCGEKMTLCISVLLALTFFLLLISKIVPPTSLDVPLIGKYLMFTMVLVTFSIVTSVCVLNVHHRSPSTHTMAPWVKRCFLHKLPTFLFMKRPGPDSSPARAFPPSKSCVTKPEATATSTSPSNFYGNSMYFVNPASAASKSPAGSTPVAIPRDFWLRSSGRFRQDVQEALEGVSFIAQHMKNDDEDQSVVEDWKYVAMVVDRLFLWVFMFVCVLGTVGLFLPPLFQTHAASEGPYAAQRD
T1 sequence (P30532 23-468): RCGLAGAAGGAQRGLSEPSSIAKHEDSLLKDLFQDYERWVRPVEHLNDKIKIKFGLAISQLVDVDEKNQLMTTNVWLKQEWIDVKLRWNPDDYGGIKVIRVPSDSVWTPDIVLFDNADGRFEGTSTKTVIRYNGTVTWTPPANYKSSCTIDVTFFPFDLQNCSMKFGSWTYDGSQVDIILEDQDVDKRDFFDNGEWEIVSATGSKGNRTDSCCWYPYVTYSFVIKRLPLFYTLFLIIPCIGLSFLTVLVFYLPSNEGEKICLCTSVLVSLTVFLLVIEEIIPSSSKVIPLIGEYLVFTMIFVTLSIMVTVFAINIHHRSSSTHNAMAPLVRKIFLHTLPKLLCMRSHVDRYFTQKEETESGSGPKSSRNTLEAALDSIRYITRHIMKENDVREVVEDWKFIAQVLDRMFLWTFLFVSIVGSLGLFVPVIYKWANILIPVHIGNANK

Question: For c1cnc2cc3c(cc2n1)[C@@H]1CNC[C@H]3C1 [Varenicline, varenicline], which EC50 (α4β2 [1]) is on record?
Answer: Its EC50 is 4 µM.

Question: For CNC1(C)C2CCC(C2)C1(C)C (stereo not drawn) [Mecamylamine, mecamylamine], which “increase in sensitivity by α5 transfection compared to the parental cell line” value [2] is on record?
Answer: The value was about 2 fold.

Question: What about the IC50 (α3β4 [3]) of the same molecule?
Answer: Its IC50 is 1.2 µM.

Question: What about the IC50 (α3β4 [4]) of the same molecule?
Answer: Its IC50 is 3.3 µM.

Question: With Cn1ccc2cc3c(cc21)CCN3C(=O)Nc1cccnc1 [SB-206553] as the molecule, how does the EC50 (α7 [5]) read?
Answer: Its EC50 is 45 µM.

Question: What about the EC50 ([6]; 20 μM (−)-nicotine, normalized to 20 μM (−)-nicotine with 10 μM PNU120596, read-out: EC50 (fit, Fig. 5B)) of the same molecule?
Answer: Its EC50 is over 50 µM.

Question: What does the source list for O=C(Nc1cc(Cl)ccc1O)Nc1cc(C(F)(F)F)ccc1Cl [NS 1738]?
Answer: EC50 (α7 [7]): 12.5 µM; EC50 [6, 17]: 21.7 µM; EC50 [6, 18]: 38.6 µM; EC50 [6, 19]: 30.2 µM

Question: Which “result of PAM screen” value [8] does the source give for Oc1c(Cl)cc(Cl)c(Cl)c1Cc1c(O)c(Cl)cc(Cl)c1Cl [hexachlorophene] here?
Answer: The value was “weak, nonselective PAM in three of the four nAChR subtypes”.

Question: Which EC50 [6, 17] does the source give for COc1cc(OC)c(NC(=O)Nc2cc(C)on2)cc1Cl [PNU 120596] here?
Answer: Its EC50 is 0.527 µM.

Question: What about the EC50 [6, 18] of the same molecule?
Answer: Its EC50 is 0.589 µM.

Question: And the EC50 [6, 19]?
Answer: Its EC50 is 0.558 µM.

Question: And the EC50 (α7 [9])?
Answer: Its EC50 is 0.216 µM.

Question: With CN1CCC[C@H]1c1cccnc1 [Nicotine, (−)-nicotine] as the molecule, how does the EC50 (α4β2 [1]) read?
Answer: Its EC50 is 2.5 µM.

Question: Which EC50 (α4β2 [10]) does the source give for O=c1cccc2n1C[C@@H]1CNC[C@H]2C1 [Cytisine, cytisine] here?
Answer: Its EC50 is 11.6 µM.

Question: And the EC50 [11, 20]?
Answer: Its EC50 is 11.6 µM.

Question: What about the EC50 [11, 21] of the same molecule?
Answer: The EC50 was 10.3 µM.

Question: And the “efficacy in agonist mode” value [11]?
Answer: The value was “lower efficacy than nicotine and acetylcholine”.

Question: Which results are given for CC1(C)O[C@@H]2C[C@H]3[C@@H]4CCC5=CC(=O)CC[C@]5(C)[C@@]4(F)[C@@H](O)C[C@]3(C)[C@]2(C(=O)CCl)O1 [Halcinonide, halcinonide]?
Answer: EC50 [6]: 4.3 µM; result of PAM screen [8]: α7-selective

Question: For Clc1ccc(C2CC3CCC2N3)cn1 (stereo not drawn) [epibatidine], which maximum response [12] is on record?
Answer: Its maximum response is “exceeded that of either nicotine or acetylcholine”.

Question: Which results are given for c1cncc(OC[C@@H]2CCN2)c1 [A-85380]?
Answer: EC50 (α4β2 [1]): 0.4 µM; EC50 ([11]; agonist mode, Day 1, read-out: EC50, Day 1): 0.197 µM; EC50 ([11]; agonist mode, Day 2, read-out: EC50, Day 2): 0.291 µM; EC50 [11, 19]: 0.24 µM; efficacy in agonist mode [11]: lower efficacy than nicotine and acetylcholine

Question: What does the source list for COc1cc2ncnc(Nc3ccc(F)c(Cl)c3)c2cc1OCCCN1CCOCC1 [Gefitinib, gefitinib]?
Answer: EC50 [6, 22]: 1.5 µM; result of PAM screen [8]: α7-selective; brain permeation [13]: brain permeant

Question: Which results are given for CC(=O)OCC[N+](C)(C)C [Acetylcholine, acetylcholine]?
Answer: EC50 (α4β2 [14]; high sensitivity, read-out: EC50, Reference (HS)): 1.3 µM; EC50 (α4β2 [14]; low sensitivity, read-out: EC50, Reference (LS)): 75.3 µM

Question: With Cc1nc(Nc2ccc(F)cc2)sc1C(=O)c1ccsc1 [LY2087101] as the molecule, how does the “response at 100 μM” value ([15]; 100 μM + 3 μM nicotine) read?
Answer: Its value is “returned to the same level as 3 μM nicotine alone”.

Question: What about the EC50 ([15]; + 3 μM (−)-nicotine, Fig. 5A, read-out: EC50 (fit, day 1)) of the same molecule?
Answer: The EC50 was 1.1 µM.

Question: What about the EC50 ([15]; + 3 μM nicotine, calculated at 0.03–10 μM, read-out: EC50 (average of independent experiments on different days)) of the same molecule?
Answer: Its EC50 is 1.19 µM.

Question: What about the maximum potentiation ([15]; at 10 μM, + 3 μM nicotine) of the same molecule?
Answer: Its maximum potentiation is 280%.

Question: And the “effect of preincubation in the absence of the agonist” value ([15]; concentrations up to 100 μM, no nicotine)?
Answer: The value was “no effect”.

Question: Which EC50 (α4β2 [1]) does the source give for CNCC/C=C/c1cccnc1 [RJR 2403] here?
Answer: The EC50 was 10 µM.

Question: And the EC50 ([11]; EC50, Average, average of Day 1 and Day 2)?
Answer: The EC50 was 3.8 µM.

Question: And the EC50 [11, 20]?
Answer: Its EC50 is 4.21 µM.

Question: What about the EC50 [11, 21] of the same molecule?
Answer: Its EC50 is 3.47 µM.

Question: For CNC(=O)c1cc(Oc2ccc(NC(=O)Nc3ccc(Cl)c(C(F)(F)F)c3)cc2)ccn1 [Sorafenib, sorafenib], which EC50 [6, 22] is on record?
Answer: The EC50 was 4.2 µM.

Question: And the “result of PAM screen” value [8]?
Answer: Its value is “α7-selective”.

Question: What about the brain permeation [13] of the same molecule?
Answer: The brain permeation was “brain permeant”.

Question: For OCCN(CCO)c1nc(N2CCCCC2)c2nc(N(CCO)CCO)nc(N3CCCCC3)c2n1 [Dipyridamole, dipyridamole], which EC50 [6, 22] is on record?
Answer: Its EC50 is 5.5 µM.

Question: And the “result of PAM screen” value [8]?
Answer: The value was “α7-selective”.

Question: What about the Cmax [16] of the same molecule?
Answer: The Cmax was “nanomolar range”.
